Reference: PubChem BioAssay AID330 (DTP/NCI, 2004)
Several values for one entry are separate records, joined by “and”; a condition that tells them apart may be missing. Identical values can stand only once. Toxic doses and inconclusive results are not listed.

Tested on: P388 leukemia ip, CD2F1 mice, survival T/C
Assay: NCI In Vivo Anticancer Drug Screen. Data for tumor model P388 Leukemia (intraperitoneal) in CD2F1 (CDF1) mice
Conditions: endpoint: median survival time, higher = longer survival
How it was run: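 Mice carrying the transplanted tumor received test compound or vehicle. Survival was recorded in each group, and the value is the treated-group measurement divided by that of the vehicle-treated control group.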

[1] = dose: 50.0 mg/kg/injection, schedule: Q01DX009 (ip), vehicle: saline with Tween-80
[2] = dose: 100.0 mg/kg/injection, schedule: Q01DX009 (ip), vehicle: saline with Tween-80
[3] = dose: 200.0 mg/kg/injection, schedule: Q01DX009 (ip), vehicle: saline with Tween-80
[4] = dose: 50.0 mg/kg/injection, schedule: Q01DX005 (ip), vehicle: Klucel (hydroxypropylcellulose) (HPC)
[5] = dose: 100.0 mg/kg/injection, schedule: Q01DX005 (ip), vehicle: Klucel (hydroxypropylcellulose) (HPC)
[6] = dose: 200.0 mg/kg/injection, schedule: Q01DX005 (ip), vehicle: Klucel (hydroxypropylcellulose) (HPC)
[7] = dose: 60.0 mg/kg/injection, schedule: Q01DX005 (ip), vehicle: saline
[8] = dose: 120.0 mg/kg/injection, schedule: Q01DX005 (ip), vehicle: saline
[9] = dose: 240.0 mg/kg/injection, schedule: Q01DX005 (ip), vehicle: saline
[10] = dose: 50.0 mg/kg/injection, schedule: Q01DX005 (ip), vehicle: saline
[11] = dose: 100.0 mg/kg/injection, schedule: Q01DX005 (ip), vehicle: saline
[12] = dose: 200.0 mg/kg/injection, schedule: Q01DX005 (ip), vehicle: saline
[13] = dose: 60.0 mg/kg/injection, schedule: Q01DX005 (ip), vehicle: saline with Tween-80
[14] = dose: 120.0 mg/kg/injection, schedule: Q01DX005 (ip), vehicle: saline with Tween-80
[15] = dose: 240.0 mg/kg/injection, schedule: Q01DX005 (ip), vehicle: saline with Tween-80
[16] = dose: 100.0 mg/kg/injection, schedule: Q04DX002 (ip), vehicle: Klucel (hydroxypropylcellulose) (HPC)
[17] = dose: 200.0 mg/kg/injection, schedule: Q04DX002 (ip), vehicle: Klucel (hydroxypropylcellulose) (HPC)
[18] = dose: 400.0 mg/kg/injection, schedule: Q04DX002 (ip), vehicle: Klucel (hydroxypropylcellulose) (HPC)
[19] = dose: 60.0 mg/kg/injection, schedule: Q01DX005 (ip), vehicle: Klucel (hydroxypropylcellulose) (HPC)
[20] = dose: 120.0 mg/kg/injection, schedule: Q01DX005 (ip), vehicle: Klucel (hydroxypropylcellulose) (HPC)
[21] = dose: 240.0 mg/kg/injection, schedule: Q01DX005 (ip), vehicle: Klucel (hydroxypropylcellulose) (HPC)

O=C(NCCc1ccccc1)c1ccccc1
T/C (dose: 50.0 mg/kg/injection, schedule: Q04DX003 (ip), vehicle: saline with Tween-80): 100 % of control | T/C (dose: 100.0 mg/kg/injection, schedule: Q04DX003 (ip), vehicle: saline with Tween-80): 90 % of control | T/C (dose: 200.0 mg/kg/injection, schedule: Q04DX003 (ip), vehicle: saline with Tween-80): 95 % of control | T/C (dose: 400.0 mg/kg/injection, schedule: Q04DX003 (ip), vehicle: saline with Tween-80): 100 % of control

CCCCNC(C)(C)C(SSSC(c1ccco1)C(C)(C)NCCCC)c1ccco1 (stereo unspecified)
T/C (dose: 12.5 mg/kg/injection, schedule: Q01DX009 (ip), vehicle: saline): 109 % of control | T/C (dose: 25.0 mg/kg/injection, schedule: Q01DX009 (ip), vehicle: saline): 113 % of control | T/C (dose: 50.0 mg/kg/injection, schedule: Q01DX009 (ip), vehicle: saline): 113 % of control | T/C (dose: 66.0 mg/kg/injection, schedule: Q04DX003 (ip), vehicle: saline): 100 % of control | T/C (dose: 100.0 mg/kg/injection, schedule: Q04DX003 (ip), vehicle: saline): 118 % of control | T/C (dose: 150.0 mg/kg/injection, schedule: Q04DX003 (ip), vehicle: saline): 109 % of control

c1ccc2c(c1)CCc1c(-c3ccncc3)n[nH]c1-2
T/C (dose: 12.5 mg/kg/injection, schedule: Q01DX009 (ip), vehicle: other): 108 % of control | T/C (dose: 25.0 mg/kg/injection, schedule: Q01DX009 (ip), vehicle: other): 123 % of control | T/C (dose: 50.0 mg/kg/injection, schedule: Q01DX009 (ip), vehicle: other): 106 % of control | T/C (dose: 100.0 mg/kg/injection, schedule: Q01DX009 (ip), vehicle: other): 104 % of control | T/C (dose: 200.0 mg/kg/injection, schedule: Q01DX009 (ip), vehicle: other): 100 % of control

Cc1ccc(N=C(Cl)Nc2ccc(C)cc2)cc1
T/C [1]: 105 % of control | T/C [2]: 108 % of control | T/C [3]: 98 % of control

Cc1cc(C)n(C2=NC3(C)NC(=O)NC3(C)N2)n1 (stereo unspecified)
T/C (dose: 50.0 mg/kg/injection, schedule: Q04DX002 (ip), vehicle: saline with Tween-80): 98 % of control | T/C (dose: 100.0 mg/kg/injection, schedule: Q04DX002 (ip), vehicle: saline with Tween-80): 94 % of control | T/C (dose: 200.0 mg/kg/injection, schedule: Q04DX002 (ip), vehicle: saline with Tween-80): 98 % of control

O=C(NCCCCCCNC(=O)c1ccccc1)c1ccccc1
T/C [4]: 100 % of control and 90 % of control | T/C [5]: 107 % of control and 86 % of control | T/C [6]: 89 % of control and 90 % of control

CCOc1ccc(NC(=O)C(=O)NNC(=S)NC)cc1
T/C (dose: 12.5 mg/kg/injection, schedule: Q01DX009 (ip), vehicle: saline with Tween-80): 94 % of control | T/C (dose: 25.0 mg/kg/injection, schedule: Q01DX009 (ip), vehicle: saline with Tween-80): 92 % of control | T/C [1]: 92 % of control and 97 % of control

OCC1=CC(O)C2C=COC(C3OC(CO)C(O)C(O)C3O)C12 (stereo unspecified)
T/C [7]: 103 % of control | T/C [8]: 102 % of control | T/C [9]: 100 % of control

CC(Cc1ccc(O)cc1)NCC(O)c1ccc(O)c(O)c1 (stereo unspecified)
T/C [1]: 104 % of control | T/C [2]: 109 % of control

[O]=[Mo](=[O])=[O]
T/C [7]: 100 % of control | T/C [8]: 110 % of control | T/C [9]: 115 % of control

O=S(=O)(NCCSSCCNS(=O)(=O)c1ccc(F)cc1)c1ccc(F)cc1
T/C (dose: 50.0 mg/kg/injection, schedule: Q01DX009 (ip), vehicle: Klucel (hydroxypropylcellulose) (HPC)): 95 % of control | T/C (dose: 100.0 mg/kg/injection, schedule: Q01DX009 (ip), vehicle: Klucel (hydroxypropylcellulose) (HPC)): 90 % of control | T/C (dose: 200.0 mg/kg/injection, schedule: Q01DX009 (ip), vehicle: Klucel (hydroxypropylcellulose) (HPC)): 89 % of control

O=C(CN1CCN(CCO)CC1)N1c2ccccc2Sc2ccc(C(F)(F)F)cc21
T/C (dose: 100.0 mg/kg/injection, schedule: Q04DX002 (ip), vehicle: saline): 101 % of control | T/C (dose: 200.0 mg/kg/injection, schedule: Q04DX002 (ip), vehicle: saline): 90 % of control

CCN(CCCl)/N=N/c1nc2c([nH]1)c(=O)n(C)c(=O)n2C
T/C [10]: 100 % of control | T/C [11]: 105 % of control | T/C [12]: 109 % of control

O=C1c2ccccc2-c2c(Br)cc(Br)c(NC(=O)C(Cl)Cl)c21
T/C [13]: 96 % of control | T/C [14]: 96 % of control | T/C [15]: 92 % of control

O=C1c2ccccc2C(=O)N1CCC(=O)n1ccnc1
T/C (dose: 17.5 mg/kg/injection, schedule: Q01DX005 (ip), vehicle: Klucel (hydroxypropylcellulose) (HPC)): 104 % of control | T/C (dose: 35.0 mg/kg/injection, schedule: Q01DX005 (ip), vehicle: Klucel (hydroxypropylcellulose) (HPC)): 97 % of control | T/C (dose: 70.0 mg/kg/injection, schedule: Q01DX005 (ip), vehicle: Klucel (hydroxypropylcellulose) (HPC)): 99 % of control

O=C1SC(Nc2ccc([N+](=O)[O-])cc2)/C(=N\N=C2/C(Nc3ccc([N+](=O)[O-])cc3)SC(=O)N2Cc2ccccc2)N1Cc1ccccc1 (stereo unspecified)
T/C [16]: 95 % of control | T/C [17]: 95 % of control | T/C [18]: 97 % of control

C/C=C\C=C/NC(=O)N1CCCC1
T/C [13]: 113 % of control | T/C [14]: 118 % of control | T/C [15]: 116 % of control

NC1(C(=O)O)CCSCC1
T/C [4]: 101 % of control | T/C [5]: 102 % of control | T/C [6]: 90 % of control

O=C1CCCCC1N1C(=O)c2ccccc2C1=O (stereo unspecified)
T/C [16]: 101 % of control | T/C [17]: 97 % of control | T/C [18]: 97 % of control

Cc1cc(=O)oc2c(-c3ccccc3)nnc(Cl)c12
T/C [19]: 98 % of control | T/C [20]: 96 % of control | T/C [21]: 95 % of control

CC(CO)(CO)N(CCO)CCO
T/C [10]: 101 % of control | T/C [11]: 101 % of control | T/C [12]: 99 % of control

O=C(O)CCCCCCCCC#CC#CCO
T/C (dose: 50.0 mg/kg/injection, schedule: Q01DX005 (ip), vehicle: saline with Tween-80): 101 % of control | T/C (dose: 100.0 mg/kg/injection, schedule: Q01DX005 (ip), vehicle: saline with Tween-80): 99 % of control | T/C (dose: 200.0 mg/kg/injection, schedule: Q01DX005 (ip), vehicle: saline with Tween-80): 95 % of control

COC(=O)C1c2c(C)cc3n2C(C=C(C)C3)C1C(=O)OC (stereo unspecified)
T/C (dose: 100.0 mg/kg/injection, schedule: Q04DX003 (ip), vehicle: Klucel (hydroxypropylcellulose) (HPC)): 100 % of control | T/C (dose: 200.0 mg/kg/injection, schedule: Q04DX003 (ip), vehicle: Klucel (hydroxypropylcellulose) (HPC)): 105 % of control | T/C (dose: 400.0 mg/kg/injection, schedule: Q04DX003 (ip), vehicle: Klucel (hydroxypropylcellulose) (HPC)): 95 % of control

CN1CCN(C2=NS(=O)(=O)c3cc(Cl)ccc3N2)CC1
T/C [1]: 104 % of control | T/C [2]: 104 % of control | T/C [3]: 91 % of control

COc1cc2ccccc2c2cc([N+](=O)[O-])oc12
T/C [4]: 110 % of control | T/C [5]: 101 % of control | T/C [6]: 110 % of control

C=C1C(O)C2(O)OCC34C(CC5C(C)=CC(=O)C(O)C5(C)C23)OC(=O)C(OC(=O)C/C=C(\C)CCCCC)C14 (stereo unspecified)
T/C (dose: 2.0 mg/kg/injection, schedule: Q01DX005 (ip), vehicle: saline + alcohol): 161 % of control | T/C (dose: 4.0 mg/kg/injection, schedule: Q01DX005 (ip), vehicle: saline + alcohol): 168 % of control and 169 % of control

N#CC1=C(Nc2ccccc2Cl)SC2(CCCC2)NC1=O
T/C [19]: 100 % of control | T/C [20]: 100 % of control | T/C [21]: 92 % of control

CCC(=O)Nc1ccc(N=NN(C)C)cc1
T/C (dose: 6.25 mg/kg/injection, schedule: Q04DX002 (ip), vehicle: Klucel (hydroxypropylcellulose) (HPC)): 97 % of control | T/C (dose: 12.5 mg/kg/injection, schedule: Q04DX002 (ip), vehicle: Klucel (hydroxypropylcellulose) (HPC)): 106 % of control | T/C (dose: 25.0 mg/kg/injection, schedule: Q04DX002 (ip), vehicle: Klucel (hydroxypropylcellulose) (HPC)): 100 % of control and 109 % of control

CC1=CC(C)(C)Nc2ccc(CSc3ccccc3)cc21
T/C (dose: 50.0 mg/kg/injection, schedule: Q01DX009 (ip), vehicle: DMSO): 111 % of control | T/C [1]: 104 % of control | T/C [2]: 110 % of control | T/C [3]: 96 % of control
